Data taken from ChEMBL document CHEMBL1126278, “New neplanocin analogues. 1. Synthesis of 6'-modified neplanocin A derivatives as broad-spectrum antiviral agents” (J Med Chem, 1992).
Values after ≈ are worked out from the molar mass of the structure shown.

Tests used:
HeLa [1] = experiment: Inhibitory effect on replication of RNA virus coxsB-4 in HeLa cell line.; type: functional, cell-based; conditions: Homo sapiens
Vero [2] = experiment: Inhibitory effect on replication of RNA virus coxsB-4 in Vero cell line; type: functional, cell-based; conditions: Chlorocebus sabaeus
HEL [3] = experiment: Inhibitory effect on replication of DNA virus VZV (Oka) on HEL cell line.; type: functional, cell-based; conditions: Homo sapiens
[4] = Inhibitory effect on replication of DNA virus HSV-1 (KOS) in PRK cell line.; type: functional, cell-based; conditions: Oryctolagus cuniculus
Vero [5] = experiment: Inhibitory effect on replication of RNA virus cell morphology in Vero cell line.; type: functional, cell-based; conditions: Chlorocebus sabaeus
HEL [6] = experiment: Inhibitory effect on replication of DNA virus VZV (YS) on HEL cell line.; type: functional, cell-based; conditions: Homo sapiens
HEL [7] = experiment: Inhibitory effect on replication of DNA virus CMV (Davis) on HEL cell line.; type: functional, cell-based; conditions: Homo sapiens
HEL [8] = experiment: Inhibitory effect on replication of DNA virus Cell growth on HEL cell line.; type: functional, cell-based; conditions: Homo sapiens
ESM [9] = experiment: Inhibitory effect on replication of DNA virus HSV-2 (G) in ESM cell line; type: functional, cell-based
PRK [10] = experiment: Inhibitory effect on replication of RNA virus VSV in PRK cell line.; type: functional, cell-based; conditions: Oryctolagus cuniculus
PRK [11] = experiment: Inhibitory effect on replication of DNA virus VV on PRK cell line.; type: functional, cell-based; conditions: Oryctolagus cuniculus
Vero [12] = experiment: Inhibitory effect on replication of RNA virus SV in Vero cell line.; type: functional, cell-based; conditions: Chlorocebus sabaeus
ESM [13] = experiment: Inhibitory effect on replication of DNA virus VV on ESM cell line.; type: functional, cell-based
Vero [14] = experiment: Inhibitory effect on replication of RNA virus protein synthesis in Vero cell line.; type: functional, cell-based; conditions: Chlorocebus sabaeus
ESM [15] = experiment: Inhibitory effect on replication of DNA virus HSV-1 (KOS) in ESM cell line; type: functional, cell-based
HEL [16] = experiment: Inhibitory effect on replication of DNA virus CMV (AD-169) on HEL cell line.; type: functional, cell-based; conditions: Homo sapiens
HEL [17] = experiment: Inhibitory effect on replication of DNA virus TK-VZV (YSR) on HEL cell line.; type: functional, cell-based; conditions: Homo sapiens
Vero [18] = experiment: Inhibitory effect on replication of RNA virus reo-1 in Vero cell line.; type: functional, cell-based; conditions: Chlorocebus sabaeus
Vero [19] = experiment: Inhibitory effect on replication of RNA virus RNA synthesis in Vero cell line.; type: functional, cell-based; conditions: Chlorocebus sabaeus
MDCK [20] = experiment: Inhibitory effect on replication of RNA virus cell morphology in MDCK cell line.; type: functional, cell-based; conditions: Canis lupus familiaris
MT4 [21] = experiment: Inhibitory effect on replication of RNA virus HIV-1 in MT-4 cell line.; type: functional, cell-based; conditions: Homo sapiens
ESM [22] = experiment: Inhibitory effect on replication of RNA virus VSV in ESM cell line.; type: functional, cell-based
ESM [23] = experiment: Inhibitory effect on replication of DNA virus TK-HSV-1 (VMW 1837) on ESM cell line.; type: functional, cell-based
HeLa [24] = experiment: Inhibitory effect on replication of RNA virus cell morphology in HeLa cell line.; type: functional, cell-based; conditions: Homo sapiens
PRK [25] = experiment: Inhibitory effect on replication of DNA virus Cell morphology on PRK cell line; type: functional, cell-based; conditions: Oryctolagus cuniculus
Vero [26] = experiment: Inhibitory effect on replication of RNA virus JV in Vero cell line.; type: functional, cell-based; conditions: Chlorocebus sabaeus
ESM [27] = experiment: Inhibitory effect on replication of RNA virus cell morphology in ESM cell line.; type: functional, cell-based
MDCK [28] = experiment: cells; conditions: Canis lupus familiaris
HeLa [29] = experiment: cells; conditions: Homo sapiens
MT4 [30] = experiment: Inhibitory effect on replication of RNA virus HIV-2 in MT-4 cell line.; type: functional, cell-based; conditions: Homo sapiens
MT4 [31] = experiment: Inhibitory effect on replication of RNA virus cell growth in MT-4 cell line.; type: functional, cell-based; conditions: Homo sapiens
PRK [32] = experiment: Inhibitory effect on replication of RNA virus cell morphology in PRK cell line.; type: functional, cell-based; conditions: Oryctolagus cuniculus
Vero [33] = experiment: Inhibitory effect on replication of RNA virus PV-3 in Vero cell line.; type: functional, cell-based; conditions: Chlorocebus sabaeus
[34] = Inhibitory effect on replication of DNA virus HSV-2 (G) in PRK cell line.; type: functional, cell-based, herpes simplex virus; conditions: Human alphaherpesvirus 1, PRK
ESM [35] = experiment: Inhibitory effect on replication of DNA virus Cell morphology on ESM cell line; type: functional, cell-based
HEL [36] = experiment: Inhibitory effect on replication of DNA virus TK-VZV (07-1) on HEL cell line.; type: functional, cell-based; conditions: Homo sapiens
Vero [37] = experiment: Inhibitory effect on replication of RNA virus TV in Vero cell line.; type: functional, cell-based; conditions: Chlorocebus sabaeus
Vero [38] = experiment: Inhibitory effect on replication of RNA virus SFV in Vero cell line; type: functional, cell-based; conditions: Chlorocebus sabaeus
MDCK [39] = experiment: cells; conditions: Canis lupus familiaris; remark: listed apart in the source
ESM [40] = experiment: Inhibitory effect on replication of DNA virus TK-HSV-1 (B2006) on ESM cell line.; type: functional, cell-based

Question: For `C[C@@H](O)C1=C[C@@H](n2cnc3c(N)ncnc32)[C@H](O)[C@@H]1O`, which IC50 (HeLa [1]) is on record?
Answer: > 400 µg/mL

Question: And the IC50 (Vero [2])?
Answer: > 200 µg/mL

Question: What about the IC50 (HEL [3]) of the same molecule?
Answer: 21 µg/mL (≈ 75.7 µM)

Question: And the IC50 [4]?
Answer: > 400 µg/mL

Question: And the IC50 (Vero [5])?
Answer: > 400 µg/mL

Question: What about the IC50 (HEL [6]) of the same molecule?
Answer: 65 µg/mL (≈ 234 µM)

Question: What about the IC50 (HEL [7]) of the same molecule?
Answer: 0.03 µg/mL (≈ 0.108 µM)

Question: And the IC50 (HEL [8])?
Answer: > 200 µg/mL

Question: What about the IC50 (ESM [9]) of the same molecule?
Answer: > 400 µg/mL

Question: And the IC50 (PRK [10])?
Answer: 0.1 µg/mL (≈ 0.361 µM)

Question: And the IC50 (PRK [11])?
Answer: 0.1 µg/mL (≈ 0.361 µM)

Question: What about the IC50 (Vero [12]) of the same molecule?
Answer: 4 µg/mL (≈ 14.4 µM)

Question: What about the IC50 (ESM [13]) of the same molecule?
Answer: 0.04 µg/mL (≈ 0.144 µM)

Question: What about the IC50 (Vero [14]) of the same molecule?
Answer: 56 µg/mL (≈ 202 µM)

Question: What about the IC50 (ESM [15]) of the same molecule?
Answer: > 400 µg/mL

Question: And the IC50 (HEL [16])?
Answer: 0.06 µg/mL (≈ 0.216 µM)

Question: What about the IC50 (HEL [17]) of the same molecule?
Answer: 6 µg/mL (≈ 21.6 µM)

Question: What about the IC50 (Vero [18]) of the same molecule?
Answer: 0.04 µg/mL (≈ 0.144 µM)

Question: And the IC50 (Vero [19])?
Answer: 0.1 µg/mL (≈ 0.361 µM)

Question: And the IC50 (MDCK [20])?
Answer: > 100 µg/mL

Question: What about the IC50 (MT4 [21]) of the same molecule?
Answer: > 0.03 µg/mL

Question: What about the IC50 (ESM [22]) of the same molecule?
Answer: 0.07 µg/mL (≈ 0.252 µM)

Question: What about the IC50 (ESM [23]) of the same molecule?
Answer: 70 µg/mL (≈ 252 µM)

Question: And the IC50 (HeLa [24])?
Answer: > 400 µg/mL

Question: And the IC50 (PRK [25])?
Answer: > 400 µg/mL

Question: And the IC50 (Vero [26])?
Answer: 0.4 µg/mL (≈ 1.44 µM)

Question: And the IC50 (ESM [27])?
Answer: > 400 µg/mL

Question: What about the IC50 (MDCK [28]) of the same molecule?
Answer: > 100 µg/mL

Question: What about the IC50 (HeLa [29]) of the same molecule?
Answer: > 400 µg/mL

Question: And the IC50 (MT4 [30])?
Answer: > 0.03 µg/mL

Question: And the IC50 (MT4 [31])?
Answer: 0.09 µg/mL (≈ 0.325 µM)

Question: What about the IC50 (PRK [32]) of the same molecule?
Answer: > 400 µg/mL

Question: What about the IC50 (Vero [33]) of the same molecule?
Answer: 0.1 µg/mL (≈ 0.361 µM)

Question: And the IC50 [34]?
Answer: > 200 µg/mL

Question: What about the IC50 (ESM [35]) of the same molecule?
Answer: > 400 µg/mL

Question: And the IC50 (HEL [36])?
Answer: 38 µg/mL (≈ 137 µM)

Question: What about the IC50 (Vero [37]) of the same molecule?
Answer: 0.5 µg/mL (≈ 1.8 µM)

Question: And the IC50 (Vero [38])?
Answer: > 200 µg/mL

Question: What about the IC50 (MDCK [39]) of the same molecule?
Answer: > 100 µg/mL

Question: And the IC50 (ESM [40])?
Answer: 70 µg/mL (≈ 252 µM)
